# Measured values from patent US20080299193A1, “Pharmaceutical composition comprising eszoplicone” (Lek Pharmaceuticals d.d., priority 2007, published 2008).
# Assays:
# [1] = Solubility of eszopiclone in phosphate buffer media at pH 6.8; type: physicochemical
# Experimental: Substance containing larger particles has in general lower surface area which may result in decreased water solubility and consequently in decreased biological activity due to impaired absorption from the gastrointestinal tract. […] The solubility was measured at pH 6.8, which represents the pH in the small intestine, a primary site of drug absorption. Therefore, no effect on the gastrointestinal absorption can be expected due to larger particles of eszopiclone.
# The solubility of eszopiclone in phosphate buffer media at pH 6.8 was studied at room temperature. An excess of sample was placed in the laboratory beaker filled with 50 ml media and mixed on the magnetic stirrer for 60 minutes. Afterwards, the part of the dispersion was taken from the beaker, filtered through the 0.45 μm filter and the concentration of eszopiclone was determined by UV spectroscopy.
# [2] = Stress stability testing at 60° C. for 14 days, impurities by HPLC; type: physicochemical
# Experimental: Tablets comprising eszopiclone with different particle sizes were prepared and exposed to stress stability testing at 60° C. for 14 days, stored in vials. The amount of formed degradation products was compared to the sample of commercially available tablets comprising eszopiclone (Lunesta®).
# The HPLC analysis were performed with a WATERS Acquity UPLC system equipped with a UPLC BEH Shield, 1.7 μm, 50×2.1 mm column which was maintained in a column oven at 45° C. The mobile phase consisted of a mixture of ammonium acetate, TEA and acetonitrile with pH=5.8. The flow rate was 1.0 mL/min, and the detection wavelength was 303 nm.
# All impurities eluted within 21 minutes represent the total amount of eszopiclone impurities.
smiles,measurement,setting,value
CN1CCN(C(=O)O[C@H]2c3nccnc3C(=O)N2c2ccc(Cl)cn2)CC1 [Eszopiclone with d(0.9) = 32.4 μm],Solubility at pH 6.8,"[1]; phosphate buffer pH 6.8, room temperature, 60 minutes stirring, filtered 0.45 μm, UV spectroscopy",0.44 mg/ml
CN1CCN(C(=O)O[C@H]2c3nccnc3C(=O)N2c2ccc(Cl)cn2)CC1 [Eszopiclone with d(0.9) > 200 μm],Solubility compared to substance having fine particles (in words),[1]; pH 6.8,comparable
same,solubility at 60 min,"[1]; phosphate buffer, pH 6.8, aqueous buffer, thermodynamic from solid, phosphate buffer pH 6.8, room temperature, 60 minutes stirring, filtered 0.45 μm, UV spectroscopy",570 µg/mL
"CN1CCN(C(=O)O[C@H]2c3nccnc3C(=O)N2c2ccc(Cl)cn2)CC1 [Substance in a crystal form, (+)-5(S)-6-(chloropyridin-2-yik)-7-oxo-6,7-dihydro-5H-pyrrolo[3,4-b]pyrazin-5-yl 4-methylpiperazine-1-carboxylate]",Stability at elevated temperature (in words),[2]; 60° C. for 14 days,stable
same,Total sum of impurities,"[2]; 14 days, 60° C., stored in vials, all impurities eluted within 21 minutes",<0.05%
same,Max. unknown,"[2]; 14 days, 60° C., stored in vials, maximum unknown impurity",<0.05%
